Assay results reported in patent US6596728B1, “Substituted 1,3-diaryl-2-pyrid-2-yl-3-(pyrid-2-ylamino)propanol derivatives, process for their preparation, pharmaceuticals comprising these compounds and their use” (Aventis Pharma Deutschland GmbH, priority 1998, dated 2003).

Biological target: T1, intestinal bile acid transportation system (Na+-dependent) in brush border membrane vesicles of the ileum (Oryctolagus cuniculus, UniProt Q28727)
T1 construct: Preparation of Brush Border Membrane Vesicles from the Ileum of Rabbits; from tissue; host or cells: brush border membrane vesicles from terminal ileum of male New Zealand rabbits
T1 sequence (Q28727 1-347): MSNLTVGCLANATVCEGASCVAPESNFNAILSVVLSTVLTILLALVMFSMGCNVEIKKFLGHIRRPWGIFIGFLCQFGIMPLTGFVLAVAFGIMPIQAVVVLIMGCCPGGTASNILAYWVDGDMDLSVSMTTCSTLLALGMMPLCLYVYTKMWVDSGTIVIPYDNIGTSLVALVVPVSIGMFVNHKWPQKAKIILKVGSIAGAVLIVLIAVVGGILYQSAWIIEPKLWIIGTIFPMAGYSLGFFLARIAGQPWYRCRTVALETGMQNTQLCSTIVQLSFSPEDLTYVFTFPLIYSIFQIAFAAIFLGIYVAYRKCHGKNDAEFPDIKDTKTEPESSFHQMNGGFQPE
Assay: Inhibition of Na+-dependent [3H]-taurocholate uptake in brush border membrane vesicles of the ileum of rabbits
Format: biochemical
Settings: quotient of the IC50Na of the reference substance taurochenodeoxycholate (TCDC) and of the test substance, 50 μM taurocholate, rabbit ileum vesicles
Description: Biological testing of the compounds according to the present invention was carried out by determining the inhibition of [^3H]-taurocholate uptake in brush border membrane vesicles of the ileum of rabbits. The inhibition test was carried out as follows:
1. Preparation of Brush Border Membrane Vesicles from the Ileum of Rabbits
Brush border membrane vesicles from the intestinal cells of the small intestine were prepared by the so-called Mg^2+ precipitation method. Male New Zealand rabbits (2 to 2.5 kg body weight) were sacrificed by intravenous injection of 0.5 ml T61®, an aqueous solution of 2.5 mg tetracaine HCl, […] embutramide and 25 mg mebezonium iodide. The small intestine was removed and rinsed with ice-cold physiological saline solution. The terminal 7/10 of the small intestine (measured in the oral-rectal direction, i.e., the terminal ileum, which contains the active Na^+-dependent bile acid transportation system) was used for preparation of the brush border membrane vesicles. The intestines were frozen in plastic bags under nitrogen at −80° C. For preparation of the membrane vesicles, the frozen intestines were thawed at 30° C. in a water bath. The mucosa was scraped off and suspended in 60 ml of ice-cold 12 mM TRIS/HCl buffer (pH 7.1)/300 mM mannitol, 5 mM EGTA/10 mg/l of phenylmethylsulfonyl fluoride/1 mg/l of trypsin inhibitor from soybeans (32 U/mg)/0.5 mg/l of trypsin inhibitor from bovine lung (193 U/mg)/5 mg/l of bacitracin. After dilution to 300 ml with ice-cold distilled water, the mixture was homogenized with an Ultraturrax (18-rod, IKA Werk Staufen, Germany) for 3 minutes at 75% of the maximum output by cooling with ice. After addition of 3 ml of 1 M MgCl2 solution (final concentration 10 mM), the mixture was allowed to stand for exactly 1 minute at 0° C. The cell membranes aggregate by addition of Mg^2+ and precipitate, with the exception of the brush border membranes. After centrifugation at 3000×g (5000 rpm, SS-34 rotor) for 15 minutes, the precipitate was discarded land the supernatant, which contains the brush border membranes, was centrifuged at 48000×g (20000 rpm, SS-34 rotor) for 30 minutes. The supernatant was discarded, and the precipitate was rehomogenized in 60 ml of 12 mM TRIS/HCl buffer (pH 7.1)/60 mM mannitol, 5 mM EGTA with a Potter Elvejhem homogenizer (Braun, Melsungen, 900 rpm, 10 strokes). After addition of 0.1 ml of 1 M MgCl2 solution and incubation for 15 minutes at 0° C., centrifugation was again carried out at 3000×g for 15 minutes. The supernatant was then centrifuged again at 48000×x g (20000 rpm, SS-34 rotor) for 30 minutes. The precipitate was taken up in 30 ml of 10 mM TRIS/HEPES buffer (pH 7.4)/300 mM mannitol and resuspended homogeneously by 20 strokes in a Potter Elvejhem homogenizer at 1000 rpm. After centrifugation at 48000×g (20000 rpm, SS-34 rotor) for 30 minutes, the precipitate was taken up in 0.5 to 2 ml of TRIS/HEPES buffer (pH 7.4)/280 mM mannitol (final concentration 20 mg/ml) and resuspended with the aid of a Tuberculin syringe with a 27-gauge needle. The vesicles were either used for transportation investigations directly after preparation or stored at −196° C. in 4 mg portions in liquid nitrogen.
2. Inhibition of the Na^+-dependent [^3H]taurocholate Uptake in Brush Border Membrane Vesicles of the Ileum
The uptake of substrates in the brush border membrane vesicles described above was determined by means of the so-called membrane filtration technique. 10 μl of the vesicle suspension (100 μg of protein) were pipetted as drops onto the wall of a polystyrene incubation tube (11×70 mm) which contained the incubation medium with the corresponding ligands (90 μl). […]

| SMILES | IC50Na-TCDC (μmol) / IC50Na-compound (μmol) |
| --- | --- |
| CN(C)c1cccc2c(S(=O)(=O)Nc3ccccc3C(Nc3ccccn3)C(c3ccccn3)C(O)c3ccccc3)cccc12 (centres unmarked) [Example 89] | 0.90 |
| Cc1c(C)c(S(=O)(=O)Nc2ccccc2C(Nc2ccccn2)C(c2ccccn2)C(O)c2ccccc2)c(C)c2c1OC(C)(C)CC2 (centres unmarked) [Example 83] | 0.24 |
| O=C(COc1ccc(F)cc1)Nc1ccccc1[C@@H](Nc1ccccn1)[C@H](c1ccccn1)[C@H](O)c1ccccc1 [Example 44] | 1.05 |
| O=S(=O)(Nc1ccccc1C(Nc1ccccn1)C(c1ccccn1)C(O)c1ccccc1)c1cc(C(F)(F)F)cc(C(F)(F)F)c1 (centres unmarked) [Example 78] | 0.27 |
| O=S(=O)(Nc1ccccc1C(Nc1ccccn1)C(c1ccccn1)C(O)c1ccccc1)c1ccc(F)cc1 (centres unmarked) [Example 73] | 0.92 |
| N#CC1(C(=O)Nc2ccccc2[C@@H](Nc2ccccn2)[C@H](c2ccccn2)[C@H](O)c2ccccc2)CC1 [Example 62] | 0.99 |
| O=C(/C=C/c1cccs1)Nc1ccccc1[C@@H](Nc1ccccn1)[C@H](c1ccccn1)[C@H](O)c1ccccc1 [Example 53] | 0.46 |
| O=C(Cc1cccs1)Nc1ccccc1[C@@H](Nc1ccccn1)[C@H](c1ccccn1)[C@H](O)c1ccccc1 [Example 34] | 0.81 |
| CC1(C)[C@@H]2CCC1(CS(=O)(=O)Nc1ccccc1C(Nc1ccccn1)C(c1ccccn1)C(O)c1ccccc1)C(=O)C2 (some centres unmarked) [Example 69] | 1.00 |
| CCOCC(=O)Nc1ccccc1[C@@H](Nc1ccccn1)[C@H](c1ccccn1)[C@H](O)c1ccccc1 [Example 50] | 0.67 |
| O=[N+]([O-])c1ccccc1S(=O)(=O)Nc1ccccc1C(Nc1ccccn1)C(c1ccccn1)C(O)c1ccccc1 (centres unmarked) [Example 65] | 0.84 |
| CC(=O)Nc1nc(C)c(S(=O)(=O)Nc2ccccc2C(Nc2ccccn2)C(c2ccccn2)C(O)c2ccccc2)s1 (centres unmarked) [Example 93] | 1.10 |
| O=C(CCC(=O)c1ccc(Cl)cc1)Nc1ccccc1[C@@H](Nc1ccccn1)[C@H](c1ccccn1)[C@H](O)c1ccccc1 [Example 36] | 0.36 |
| O=C(CSc1ncccn1)Nc1ccccc1[C@@H](Nc1ccccn1)[C@H](c1ccccn1)[C@H](O)c1ccccc1 [Example 56] | 1.15 |
| CCCCOc1ccc(S(=O)(=O)Nc2ccccc2C(Nc2ccccn2)C(c2ccccn2)C(O)c2ccccc2)cc1 (centres unmarked) [Example 87] | 0.84 |
| O=C(Cc1ccc(Cl)cc1)Nc1ccccc1[C@@H](Nc1ccccn1)[C@H](c1ccccn1)[C@H](O)c1ccccc1 [Example 33] | 0.52 |
| CS(=O)(=O)c1ccc(S(=O)(=O)Nc2ccccc2C(Nc2ccccn2)C(c2ccccn2)C(O)c2ccccc2)cc1 (centres unmarked) [Example 94] | 0.40 |
| Cc1ccccc1OCC(=O)Nc1ccccc1[C@@H](Nc1ccccn1)[C@H](c1ccccn1)[C@H](O)c1ccccc1 [Example 45] | 1.03 |

| SMILES | IC50Na-TCDC (μmol) / IC50Na-compound (μmol) |
| --- | --- |
| O=C(Cc1ccccc1C(F)(F)F)Nc1ccccc1[C@@H](Nc1ccccn1)[C@H](c1ccccn1)[C@H](O)c1ccccc1 [Example 38] | 0.38 |
| COc1cc(/C=C/C(=O)Nc2ccccc2[C@@H](Nc2ccccn2)[C@H](c2ccccn2)[C@H](O)c2ccccc2)ccc1O [Example 52] | 1.11 |
| O=S(=O)(Nc1ccccc1C(Nc1ccccn1)C(c1ccccn1)C(O)c1ccccc1)c1cc(Cl)cc(Cl)c1O (centres unmarked) [Example 74] | 0.70 |
| O=C(CNC(=O)OCc1ccccc1)Nc1ccccc1[C@@H](Nc1ccccn1)[C@H](c1ccccn1)[C@H](O)c1ccccc1 [Example 64] | 0.39 |
| CCOC(=O)/C=C/C(=O)Nc1ccccc1[C@@H](Nc1ccccn1)[C@H](c1ccccn1)[C@H](O)c1ccccc1 [Example 57] | 0.79 |
| O=S(=O)(Nc1ccccc1C(Nc1ccccn1)C(c1ccccn1)C(O)c1ccccc1)c1ccc(Cl)s1 (centres unmarked) [Example 82] | 0.79 |
| CCCCCC#CC(=O)Nc1ccccc1[C@@H](Nc1ccccn1)[C@H](c1ccccn1)[C@H](O)c1ccccc1 [Example 60] | 0.62 |
| C#CCCC(=O)Nc1ccccc1[C@@H](Nc1ccccn1)[C@H](c1ccccn1)[C@H](O)c1ccccc1 [Example 31] | 1.13 |
| O=C(CN1C(=O)c2ccccc2C1=O)Nc1ccccc1[C@@H](Nc1ccccn1)[C@H](c1ccccn1)[C@H](O)c1ccccc1 [Example 47] | 1.00 |
| Cc1ccnc(SCC(=O)Nc2ccccc2[C@@H](Nc2ccccn2)[C@H](c2ccccn2)[C@H](O)c2ccccc2)n1 [Example 61] | 0.66 |
| CC(C)S(=O)(=O)Nc1ccccc1C(Nc1ccccn1)C(c1ccccn1)C(O)c1ccccc1 (centres unmarked) [Example 77] | 0.22 |
| O=C(O)c1ccc(S(=O)(=O)Nc2ccccc2C(Nc2ccccn2)C(c2ccccn2)C(O)c2ccccc2)cc1 (centres unmarked) [Example 91] | 0.92 |
| O=C(Cc1ccsc1)Nc1ccccc1[C@@H](Nc1ccccn1)[C@H](c1ccccn1)[C@H](O)c1ccccc1 [Example 41] | 0.61 |
| N[C@@H](Cc1ccccc1)C(=O)N1CCC[C@H]1C(=O)Nc1ccccc1[C@@H](Nc1ccccn1)[C@H](c1ccccn1)[C@H](O)c1ccccc1 [Example 2c] | 1.06 |
| CN(CC(=O)Nc1ccccc1[C@@H](Nc1ccccn1)[C@H](c1ccccn1)[C@H](O)c1ccccc1)C(=O)OC(C)(C)C [Example 49] | 0.86 |
| CC(C)(C)c1ccc(S(=O)(=O)Nc2ccccc2C(Nc2ccccn2)C(c2ccccn2)C(O)c2ccccc2)cc1 (centres unmarked) [Example 66] | 0.93 |
| COc1ccc(CCC(=O)Nc2ccccc2[C@@H](Nc2ccccn2)[C@H](c2ccccn2)[C@H](O)c2ccccc2)cc1OC [Example 35] | 0.36 |
